The values that follow come from patent US20260183277A1, “ANTIVIRAL PHARMACEUTICAL COMPOSITION COMPRISING ERRy INHIBITOR AS ACTIVE INGREDIENT” (priority 2024, published 2026).

Where two headings read alike, the source gives them in different places.

For data set [1], the system named is ERRγ promoter. Type of data set: cell-based.
For data set [2], the system named is c-Jun occupancy on the AP1 regulatory element site of the ERRγ promoter. Type of data set: cell-based.
For data set [3], the system named is ROS. The data set is classed as cell-based.
Data set [4] relates to influenza A virus (IAV) PR8 strain. The data set is classed as cell-based.
The nature of data set [5]: Lung distribution after administration to animals. The conditions noted are these: in vivo experiments. The text has this: […]. […] […]
Data set [6] deals with PEDV QIAP1401 strain. Type of data set: cell-based, porcine epidemic diarrhea coronavirus. The conditions noted are these: maximum dose of 20 μM.
Data set [7] relates to IAV HA protein. Type of data set: cell-based, influenza A virus.
The test system of data set [8] is SREBP1c, SREBP1a, FASN, DGAT1, SCD1. The data set is classed as cell-based.
For data set [9], the system named is SARS-CoV-2 KCDC03 strain. In words: SARS-CoV-2 KCDC03 challenge of Syrian hamsters. Type of data set: in vivo. Particulars: for reduction of gross lung lesions, individual therapy: strain not stated.
Data set [10] concerns human SREBP1c gene promoter. The data set is classed as cell-based. The conditions noted are these: cells infected with each individual virus; 20 μM.
In data set [11] the test system is BCoV KWD strain. The data set is classed as cell-based, bovine coronavirus. The conditions noted are these: maximum dose of 20 μM.
In data set [12] the test system is SARS-CoV-2 S protein. The data set is classed as cell-based.
For data set [13], the system named is free fatty acids (FFA). The data set is classed as cell-based.
Data set [14] relates to SARS-CoV-2-infected Vero E6 cells. In words: Eicosanoid and cytokine ELISA in SARS-CoV-2-infected Vero E6 cells. Type of data set: cell-based, monkey.
The subject of data set [15] is IAV-infected A549 cells. Type of data set: cell-based, human.
For data set [16], the system named is intracellular fatty acid oxidation (FAO). The data set is classed as cell-based.
For data set [17], the target named is T1, ERRγ (Homo sapiens, UniProt P62508).
T1 sequence (P62508 1-458): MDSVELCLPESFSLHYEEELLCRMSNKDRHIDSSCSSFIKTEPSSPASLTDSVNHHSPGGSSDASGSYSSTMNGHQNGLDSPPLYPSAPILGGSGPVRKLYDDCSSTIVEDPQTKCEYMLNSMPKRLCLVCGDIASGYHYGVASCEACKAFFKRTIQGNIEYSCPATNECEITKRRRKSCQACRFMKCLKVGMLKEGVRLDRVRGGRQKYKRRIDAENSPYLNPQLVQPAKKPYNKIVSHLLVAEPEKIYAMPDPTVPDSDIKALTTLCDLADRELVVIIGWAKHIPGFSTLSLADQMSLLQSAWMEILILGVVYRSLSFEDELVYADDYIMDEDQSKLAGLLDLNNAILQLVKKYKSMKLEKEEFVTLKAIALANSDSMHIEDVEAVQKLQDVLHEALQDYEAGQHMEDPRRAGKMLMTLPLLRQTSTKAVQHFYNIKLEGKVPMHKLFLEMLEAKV
The conditions noted are these: compared with lead compound GSK5182; cited from earlier work.

Data set [18] has as its system SARS-CoV-2-infected cells. In words: Double-membrane vesicle / dsRNA formation by TEM and confocal microscopy. Type of data set: cell-based.
The conditions of data set [19]: mice.
Data set [20] deals with intracellular triacylglycerol (TAG). Type of data set: cell-based. Particulars: virus-infected cells; 20 μM.
Data set [21] relates to PSaV Cowden strain. In words: microbe, parasite or virus in culture. Type of data set: cell-based, porcine sapovirus. Particulars: Sapporo virus, MOI=0.1 FFU, viral yield in cell supernatant, read-out: half-maximal inhibitory concentration (IC50).

With `CC(=O)N[C@@H](CS)C(=O)O` [NAC, N-acetylcysteine], in data set [1], the “virus-induced activation of ERRγ promoter and ERRγ expression” value was “attenuated”. Also, the “virus-increased occupancy of c-Jun on the AP1 regulatory element site of the ERRγ promoter” value in [2] is listed as “markedly blocked”. In addition, the “virus-induced ROS generation” value in [3] is given as “significantly suppressed”.
Regarding `CC(C)N1CCN(c2ccc(/C(=C(/CCCO)c3ccccc3)c3ccc(O)cc3)cc2)CC1` [DN200434], in data set [4], the “viral genome replication, progeny production, and protein synthesis of IAV” value is listed as “dose-dependent suppression”. Also, the “detection in the lungs via the bloodstream” value in data set [5] is given as “detected in sufficient quantities in the lungs”. In addition, in data set [6], the “reduction in viral genome copy numbers” value is given as “more than 2.0 log 10 steps” and the “reduction in viral titers” value is “more than 2.0 log 10 steps”. For the same compound, the “palmitoylation of IAV HA proteins” value in [7] is recorded as “significantly inhibited”. Besides, the “SREBP1c expression activated by individual virus infections” value in data set [8] was “reduced”. Moreover, in [8] (20 μM), the “basal level of SREBP1a mRNA” value is “not affected” and the “lipogenic gene activation (FASN, DGAT1, SCD1 mRNA)” value is recorded as “effectively attenuated”. Besides, in [9] (40 mg kg^−1 d^−1 i.p., twice a day for four and a half days, vs virus-challenged, vehicle-treated control), the “reduction in gross lung lesions” value was determined as 92%. In addition, in data set [9] (DN200434 40 mg kg^−1 d^−1 alone (combination study)), the “reduction of gross lung lesions, individual therapy” value was determined as 50%. Moreover, the “IFN-α and IFN-β levels in BALF” value in [9] (hamsters, i.p., vs vehicle-treated controls) was “no effect”. The “activity of the SREBP1c gene promoter” value in data set [10] was “markedly suppressed”. In addition, in [11], the “reduction in viral genome copy numbers” value is given as “more than 2.0 log 10 steps” and the “reduction in viral titers” value is “more than 2.0 log 10 steps”. Also, under “Syrian hamsters, i.p. 40 mg kg^−1 d^−1, 14 days”, the signs of toxicity result is recorded as “did not induce any signs of toxicity”. For the same compound, under “hamsters”, the “gross or histopathological changes in vital organs (liver, lung, kidney, heart, spleen)” value is “did not result in gross or histopathological changes”. In [12], the “palmitoylation of SARS-CoV-2 S protein” value was “significantly inhibited”. For the same compound, the “synthesis of representative fatty acids induced by infection” value in data set [13] is listed as “significantly interrupted”. The “level of selected FFA” value in data set [13] (20 μM) was “either restored the level of selected FFA to that of mock control cells or decreased it below mock control levels”. Also, in data set [14] (SARS-CoV-2-infected Vero cells), the “IFN-α and IFN-β levels” value is “remained unchanged”; the “TNF-α, IL-6, and MCP-1 levels” value was “significantly reduced”. Further, the “levels of PGE2 and LTB4” value in [14] (SARS-CoV-2-infected cells) is reported as “significantly reduced”. Further, in data set [15], the “levels of PGE2 and LTB4” value is listed as “significantly reduced”; the “proinflammatory cytokines IFN-α, IFN-β, TNF-α, IL-6, and MCP-1” value is reported as “significant suppression”. Further, the “energy production through 3-oxidation in the mitochondria from the FFA substrate” value in data set [16] was “inhibited”. In addition, the “functional IC50 relative to GSK5182” value in [17] is 12 fold. The “SARS-CoV-2-induced perinuclear DMV clusters containing viral double-stranded RNA” value in [18] (TEM and confocal microscopy) is “significant reduction”. The “number of progeny viral particles” value in data set [18] (TEM, vs vehicle-treated virus-infected cells) is “notable reduction”. Besides, the “gross or histopathological changes in vital organs (liver, lung, kidney, heart, spleen)” value in data set [19] is “did not result in gross or histopathological changes”. In addition, in data set [19] (i.p. 20 mg kg^−1 d^−1, 14 days), the signs of toxicity entry is “did not induce any signs of toxicity”. The “lipid accumulation (intracellular TAG)” value in data set [20] was “effectively attenuated”. Moreover, the IC50 in data set [21] came to 6.24 ± 1.07 µM.
For the compound `CCC(CC)COC(=O)[C@H](C)N[P@](=O)(OC[C@H]1O[C@@](C#N)(c2ccc3c(N)ncnn23)[C@H](O)[C@@H]1O)Oc1ccccc1` [remdesivir, reference compound], in [9] (remdesivir 2.5 mg kg^−1 d^−1 alone), the “reduction of gross lung lesions, individual therapy” value worked out at 20%.
